Measured values as given in publication PMC8673317 (Journal of medicinal chemistry, 2021).
“Also recorded” adds a separate entry of the source. Structures can show the parent of a compound that is named as a salt.

How the values were obtained:
mDOR = mDOR (Mus musculus, UniProt P32300); assay: [35S]GTPγS functional assay in membranes of transfected cells; conditions: antagonism of 100 nM agonist
C57BL/6J mice [1] = assay: 55 °C warm-water tail-withdrawal; type: in vivo, mouse
129Sv6 mice [2] = assay: Radiant heat tail flick antinociception; type: in vivo, mouse; conditions: for opioid receptor dependence of antinociception (MOR, DOR, KOR KO mice): 129Sv6 (and C57BL/6J) KO mice, KAE 100 mg/kg po in 129Sv6; for effect of naloxone on antinociception: naloxone 1 mg/kg sc 15 min before drug; for antinociceptive activity in the tail-flick assay at doses as high as 100 mg/kg: alkaloid 2 po and sc, 9OH sc
mKOR [3] = molecular target: T1, mKOR (Mus musculus, UniProt P33534); conditions: agonist stimulation, ± SEM; cited from earlier work
T1 sequence (P33534 whole entry): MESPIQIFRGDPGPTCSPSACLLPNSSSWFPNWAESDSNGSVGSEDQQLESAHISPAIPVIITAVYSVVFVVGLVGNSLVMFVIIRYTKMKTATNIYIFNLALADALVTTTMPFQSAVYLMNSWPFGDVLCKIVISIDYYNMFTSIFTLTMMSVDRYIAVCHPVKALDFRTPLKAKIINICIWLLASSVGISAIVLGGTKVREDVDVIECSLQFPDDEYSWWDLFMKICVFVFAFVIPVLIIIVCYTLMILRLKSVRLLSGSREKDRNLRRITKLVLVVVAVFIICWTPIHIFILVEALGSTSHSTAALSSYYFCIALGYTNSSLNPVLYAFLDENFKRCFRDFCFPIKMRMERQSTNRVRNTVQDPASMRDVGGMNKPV

mMOR [4] = molecular target: T2, mMOR (Mus musculus, UniProt P42866); conditions: read-out: [35S]GTPγS mMOR EC50; agonist stimulation, ± SEM; cited from earlier work
T2 sequence (P42866 whole entry): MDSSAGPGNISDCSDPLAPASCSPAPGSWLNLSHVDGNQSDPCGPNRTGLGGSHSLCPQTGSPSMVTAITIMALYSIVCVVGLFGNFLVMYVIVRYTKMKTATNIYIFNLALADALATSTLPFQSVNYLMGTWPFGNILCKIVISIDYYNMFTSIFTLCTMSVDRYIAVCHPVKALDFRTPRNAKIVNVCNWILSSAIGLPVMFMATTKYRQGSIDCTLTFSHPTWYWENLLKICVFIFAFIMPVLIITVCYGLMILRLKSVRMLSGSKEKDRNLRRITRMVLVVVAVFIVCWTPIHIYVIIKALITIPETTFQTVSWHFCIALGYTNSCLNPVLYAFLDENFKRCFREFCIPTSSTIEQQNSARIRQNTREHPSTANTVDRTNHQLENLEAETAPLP

C57BL/6J mice [5] = conditions: MP 0.76, 1.5, 4 mg/kg sc; Figure 2L reprinted; listed as MP; cited from earlier work
MOR KO mice [6] = assay: Antagonism of icv KOR/DOR agonist antinociception; type: in vivo, mouse; conditions: MP 30 mg/kg sc
[7] = Pharmacokinetic study, plasma and brain levels by LC-MS/MS
C57BL/6J mice [8] = assay: Lethality; type: in vivo, mouse
C57BL/6J mice [9] = assay: Conditioned place preference and aversion; type: in vivo, mouse; conditions: alkaloid extract 100 mg/kg/d po, mitragynine 30 mg/kg/d po, 7OH 1 mg/kg/d sc
[10] = pH 7.4
C57BL/6J mice [11] = assay: Locomotor; type: in vivo, mouse; conditions: KAE 45 mg/kg po, mitragynine 20 mg/kg po, 7OH 1 mg/kg sc, MP […] sc
[12] = Stability in pH 7.4 buffer; type: physicochemical
MOR KO mice [13] = assay: Lethality; type: in vivo, mouse
Lethality = type: in vivo, mouse; conditions: 129Sv6, mouse, in vivo, po
129Sv6 mice [14] = assay: Lethality; type: in vivo, mouse; conditions: from rodent oral LD50
[15] = Pharmacokinetic study, plasma and brain levels by LC-MS/MS; remark: listed apart in the source
mice = conditions: po; cited from earlier work
rats = conditions: intravenous (iv) route; cited from earlier work
mKOR [16] = molecular target: T1, mKOR; assay: [35S]GTPγS functional assay in membranes of transfected cells; conditions: relative to U50, 488H
humans = conditions: cited from earlier work
CD1 mice = conditions: cited from earlier work
CXCR7 = CXCR7 (Homo sapiens, UniProt P25106); assay: PRESTO-Tango concentration-response; type: cell-based
Sequence of CXCR7 (P25106 whole entry): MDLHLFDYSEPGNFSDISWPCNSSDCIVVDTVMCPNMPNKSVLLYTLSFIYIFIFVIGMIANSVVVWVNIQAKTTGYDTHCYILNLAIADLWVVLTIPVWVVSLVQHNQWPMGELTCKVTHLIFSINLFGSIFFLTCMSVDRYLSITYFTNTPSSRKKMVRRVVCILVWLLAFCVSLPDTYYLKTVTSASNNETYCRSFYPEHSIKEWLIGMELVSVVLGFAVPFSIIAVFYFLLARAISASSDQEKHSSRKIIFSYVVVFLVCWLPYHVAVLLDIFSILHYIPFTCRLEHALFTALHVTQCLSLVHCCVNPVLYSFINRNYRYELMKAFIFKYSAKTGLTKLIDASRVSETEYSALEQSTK

[17] = system: 318 non-olfactory GPCRs (opioid receptors); assay: PRESTO-Tango GPCRome β-arrestin2 recruitment screen; type: cell-based, human; conditions: 10 μM
BB3 = molecular target: T3, BB3 (Homo sapiens, UniProt P32247); assay: PRESTO-Tango concentration-response; type: cell-based
T3 sequence (P32247 1-399): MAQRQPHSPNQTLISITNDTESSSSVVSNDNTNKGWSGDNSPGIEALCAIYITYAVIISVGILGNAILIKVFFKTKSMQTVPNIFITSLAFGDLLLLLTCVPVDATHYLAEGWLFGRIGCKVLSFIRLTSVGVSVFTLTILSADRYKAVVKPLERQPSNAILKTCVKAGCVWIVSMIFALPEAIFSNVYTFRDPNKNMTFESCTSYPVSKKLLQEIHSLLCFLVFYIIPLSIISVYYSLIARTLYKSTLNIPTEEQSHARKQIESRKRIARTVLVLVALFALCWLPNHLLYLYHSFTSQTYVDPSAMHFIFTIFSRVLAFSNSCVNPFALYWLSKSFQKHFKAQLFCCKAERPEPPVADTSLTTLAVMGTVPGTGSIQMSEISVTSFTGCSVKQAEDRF

mMOR [18] = molecular target: T2, mMOR; assay: [35S]GTPγS functional assay in membranes of transfected cells; conditions: read-out: [35S]GTPγS mMOR %Emax
CCR3 = molecular target: T4, CCR3 (Homo sapiens, UniProt P51677); assay: PRESTO-Tango concentration-response; type: cell-based
T4 sequence (P51677 1-355): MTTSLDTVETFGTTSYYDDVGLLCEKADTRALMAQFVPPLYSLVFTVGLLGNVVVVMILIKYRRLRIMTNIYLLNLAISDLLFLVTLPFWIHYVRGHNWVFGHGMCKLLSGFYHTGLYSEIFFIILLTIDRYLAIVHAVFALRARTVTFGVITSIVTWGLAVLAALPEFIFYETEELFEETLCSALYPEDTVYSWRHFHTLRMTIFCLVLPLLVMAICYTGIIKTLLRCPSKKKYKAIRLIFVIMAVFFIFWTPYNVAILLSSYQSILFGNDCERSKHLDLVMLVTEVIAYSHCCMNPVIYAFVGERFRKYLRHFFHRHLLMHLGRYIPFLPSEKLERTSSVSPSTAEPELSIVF

[19] = C57BL/6J, mitragynine 30 mg/kg po

Sequence of mDOR (P32300 whole entry): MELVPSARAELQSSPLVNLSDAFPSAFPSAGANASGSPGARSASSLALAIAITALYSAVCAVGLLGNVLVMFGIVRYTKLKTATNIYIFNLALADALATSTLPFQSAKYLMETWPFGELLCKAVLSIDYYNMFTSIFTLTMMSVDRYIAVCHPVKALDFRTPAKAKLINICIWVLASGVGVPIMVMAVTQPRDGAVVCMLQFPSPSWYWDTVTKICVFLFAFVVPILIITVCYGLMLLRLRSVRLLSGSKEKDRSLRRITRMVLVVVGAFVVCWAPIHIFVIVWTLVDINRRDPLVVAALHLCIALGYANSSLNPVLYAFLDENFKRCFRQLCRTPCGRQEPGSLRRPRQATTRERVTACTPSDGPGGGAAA

CC[C@@H]1CN2CCc3c([nH]c4cccc(O)c34)[C@@H]2C[C@@H]1/C(=C\OC)C(=O)OC [9-hydroxy corynanthedine, 9-hydroxycorynantheidine]
[35S]GTPγS mDOR IC50 (mDOR): no activity

CC[C@@H]1CN2CC[C@]3(Nc4cccc(OC)c4C3=O)[C@@H]2C[C@@H]1/C(=C\OC)C(=O)OC [mitragynine pseudoindoxyl]
antinociceptive potency over sc morphine (C57BL/6J mice [1]; C57BL/6J, sc): about 10 fold
ED50 (C57BL/6J mice [1]; Mus musculus, sc, read-out: antinociceptive ED50 (95% CI), sc): 0.26 mg/kg
antinociceptive potency relative to morphine (C57BL/6J mice [1]; sc, C57BL/6J and 129Sv6 strains): 2–10 fold
opioid receptor dependence of antinociception (MOR, DOR, KOR KO mice) (129Sv6 mice [2]): mediated through MOR, independent of DOR/KOR
more antinociceptive potency than mitragynine (sc) (129Sv6 mice [2]; 129Sv6 mice, sc): > 100 fold
effect of naloxone on antinociception (129Sv6 mice [2]): naloxone-sensitive
[35S]GTPγS mKOR EC50 (mKOR [3]): no activity
EC50 (mMOR [4]): 1.66 ± 0.1 nM
inhibition of GI transit (in words) (C57BL/6J mice [5]): showed constipation at all doses
antagonism of icv SNC 80 antinociception (MOR KO mice [6]; SNC 80 100 nmol icv): antagonized
antagonism of icv U50, 488H antinociception (MOR KO mice [6]; U50, 488H 100 nmol icv): antagonized
level in plasma and brain at 8 h [7, 19]: no quantifiable
concentration at 20 min ([7]; C57BL/6J, mouse, plasma, sc): 0.41 ± 0.12 µM

CC[C@@H]1CN2CCc3c([nH]c4cccc(OC)c34)[C@@H]2C[C@@H]1/C(=C\OC)C(=O)OC [mitragynine]
time to peak antinociceptive effect (C57BL/6J mice [1]; both strains (C57BL/6J, 129Sv6), po and sc): 15 to 20 min
opioid receptor dependence of antinociception (MOR, DOR, KOR KO mice) (129Sv6 mice [2]): mediated by MOR (but not DOR and KOR)
effect of naloxone on antinociception (129Sv6 mice [2]): reversed
lethality (C57BL/6J mice [8]; 1 g/kg, po, data not shown): 100%
conditioned place preference (CPP/CPA) (C57BL/6J mice [9]): displayed CPP; also recorded: produced reward behavior
increase of half-life in microsomes in the presence of ketoconazole [10]: ~ 5 fold
[35S]GTPγS mKOR EC50 (mKOR [3]): no activity
hyperlocomotion compared to morphine (C57BL/6J mice [11]): attenuated
stability in D2O ([12]; 1H NMR at 1, 5, 10, 24 h, room temperature): stable
stability in pH 7.4 buffer ([12]; LC/MS at 1, 5, 10 and 24 h): very stable
lethality (in words) (MOR KO mice [13]; 1 g/kg po, C57BL/6J or MOR KO mice): death of all animals
LD50 (Lethality): 750 mg/kg
oral LD50 corrected by standard allometric scaling, amount in an adult human (129Sv6 mice [14]): > 2.5 g
brain concentration of intact mitragynine ([15]; 129Sv6, po, ED80 dose (10 mg/kg)): 12.22 ± 3.4 µM
brain concentration ([15]; 129Sv6, sc 10 mg/kg): 30.06 ± 8.12 µM
level in plasma and brain at 24 h [7, 19]: below detection limits
brain concentration of intact mitragynine ([7]; C57BL/6J, po, ED80 dose (30 mg/kg)): 6.63 ± 0.67 µM
brain concentration ([7]; C57BL/6J, sc 30 mg/kg): 9.74 ± 3.05 µM
brain concentration greater than MOR agonist potency ([7]; po ED80 dose, C57BL/6J and 129Sv6): 30-to-60 fold
reported LD50 (mice): 477 mg/kg
self-administration (rats): not self-administered

CC[C@H]1CN2CCc3c([nH]c4cccc(OC)c34)[C@@H]2C[C@@H]1/C(=C\OC)C(=O)OC [speciogynine]
[35S]GTPγS mKOR %Emax (mKOR [16]): no activity
antinociceptive activity in the tail-flick assay at doses as high as 100 mg/kg (129Sv6 mice [2]; 129Sv6 mice): inactive

CN1CC[C@]23c4c5ccc(O)c4O[C@H]2[C@@H](O)C=C[C@H]3[C@H]1C5 [morphine]
potency intravenously versus orally (humans): ~ 3 fold
antinociceptive ED50 (95% CI), po (129Sv6 mice [2]; 129Sv6 mice, po, at peak effect): 3.32 (2.08–5.32) mg/kg
antinociceptive ED50 (CD1 mice): 5 mg/kg

C=C[C@H]1CN2CCc3c([nH]c4cccc(OC)c34)[C@@H]2C[C@@H]1/C(=C\OC)C(=O)OC [paynanthine, paynantheine]
antinociceptive activity in the tail-flick assay at doses as high as 100 mg/kg (129Sv6 mice [2]; 129Sv6 mice): inactive

CC[C@@H]1CN2CCc3c([nH]c4cccc(O[C@@H]5O[C@H](C(=O)O)[C@@H](O)[C@H](O)[C@H]5O)c34)[C@@H]2C[C@@H]1/C(=C\OC)C(=O)OC [9-glucuronoyl mitragynine, (2S,3S,5R,6S)-6-(((2S,3S)-2-((E)-1,3-Dimethoxy-3-oxoprop-1-en-2-yl)-3-ethyl-1,2,3,4,6,7,12,12b-octahydroindolo[2,3-a]quinolizin-8-yl)oxy)-3,4,5-trihydroxytetrahydro-2H-pyran-2-carboxylic Acid]
[35S]GTPγS mDOR IC50 (mDOR): no activity

CC[C@@H]1C[N+]2=C(C[C@@H]1/C(=C\OC)C(=O)OC)c1[nH]c3cccc(OC)c3c1CC2 [3-dehydromitragynine, (2S,3S)-2-((E)-1,3-Dimethoxy-3-oxoprop-1-en-2-yl)-3-ethyl-8-methoxy-2,3,4,6,7,12-hexahydro-1H-indolo[2,3-a]quinolizin-5-ium TFA Salt]
activity at CXCR7 (in words) (CXCR7): Poor (μM) activity
increase in luminescence signal, fold of basal, at opioid receptors [17]: > 3 fold of basal
off-target activity (in words) ([17]; Table 1 and Figure 6B): no other notable off–target activity beyond opioid receptors
activity at BB3 (in words) (BB3): Poor (μM) activity
antinociception in mice (in words) (129Sv6 mice [2]; administered directly): not antinociceptive
lethality (C57BL/6J mice [8]; 50 mg/kg, sc): 100%
lethality in the presence of KOR antagonist (nor-BNI) and DOR antagonist (NTI) (C57BL/6J mice [8]; 3DM 50 mg/kg sc, norBNI 10 mg/kg sc 24 h, NTI 20 mg/kg sc 15 min pretreatment): lethality was still observed
Emax (mMOR [18]): 44 ± 1%
activity at CCR3 (in words) (CCR3): Poor (μM) activity
lethality (MOR KO mice [13]; 50 mg/kg, sc): 100%
